{"source": "patent US20110070186A1", "about": "(priority 2009, published 2011)", "test_system": "DU-145 cells", "format": "cell-based, human"}
{"molecule": "C=C1[C@@H](C)[C@H]2[C@H](Cc3ccccc3)NC(=O)[C@]23[C@H](OC(C)=O)/C=C/[C@@](C)(O)C(=O)[C@@H](C)C/C=C/[C@H]3[C@@H]1O", "note": "[Cytochalasin-D]", "values": [{"measurement": "Effect on cell migration (in words)", "result": "did not migrate"}, {"measurement": "Relative Wound Density at 24 Hours, Mean", "result": "3.3 ± 0.2"}, {"measurement": "Relative Wound Density at 24 Hours, Percent Relative to Media", "result": 4, "unit": "%"}]}
